According to US10793557B2, “Sting agonist compounds” (Merck Sharp & Dohme Corp., priority 2018, dated 2020):

Legend:
[1] = tested on: secretion of interferon-beta from THP1 cells; experiment: IFN-β secretion in THP1 cell culture (5 h); type: cell-based; conditions: Homo sapiens, THP-1, 5 h, 30 uM cGAMP = 100%; for activation at 30 µM: compound at 30 μM, read-out: % Effect at 30 μM relative to 2′3′-cGAMP
Summary of the method: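 IFN-β in supernatant measured by AlphaLISA after a 5 h, 37 °C incubation of THP1 cells with compound (10 concentrations, 30000 down to 1.5 nM, 0.3% DMSO) in low-serum RPMI. Values scaled between DMSO and 30 uM cGAMP controls; 4-parameter curve fit yields EC50.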

full-length WT STING = molecular target: T1, full-length WT STING (Homo sapiens, UniProt Q86WV6, H232R); experiment: 3H-cGAMP filtration binding assay (WT STING); conditions: competition with tritiated cGAMP, WT STING membrane
T1 construct: AviTag (after gg linker) (C); HRV3C cleavage site (after gs linker) (C); HIS8 (C); made in house; host or cells: Trichoplusia ni (Hi-Five) insect cells infected with baculovirus (virus generated and amplified in Sf21 cells); used as a washed membrane preparation
Summary of the method: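 EC50 values come from 4-parameter fits of remaining filter-bound tritium versus log concentration (10-point, 1:3 dilution). Insect-cell membranes carrying full-length WT STING were incubated 60 min at RT with compound and tritiated cGAMP (16 nM working stock) before filtration.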

full-length HAQ STING = molecular target: T2, full-length HAQ STING (Homo sapiens, UniProt Q86WV6, G230A/H232R/R293Q/R71H); experiment: 3H-cGAMP filtration binding assay (HAQ STING); conditions: competition with tritiated cGAMP, HAQ STING membrane
T2 construct: AviTag (after GG linker) (C); HRV3C cleavage site (after GS linker) (C); HIS8 (C); made in house; host or cells: Trichoplusia ni (Hi-Five) insect cells infected with baculovirus (virus generated and amplified in Sf21 cells); used as a washed membrane preparation
Summary of the method: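 Hi-Five (T. ni) membranes overexpressing the STING variant (2.2 ug/ml working) preincubated with compound 60 min at RT in PBS, then [3H]cGAMP (8 nM working stock) added for 60 min at RT. Bound radioactivity captured on GF/B filters and counted by scintillation; EC50 from 4-parameter fit of control-normalized activity.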

T2 sequence (Q86WV6 with tags, fused parts or gaps R71H/G230A/H232R/R293Q): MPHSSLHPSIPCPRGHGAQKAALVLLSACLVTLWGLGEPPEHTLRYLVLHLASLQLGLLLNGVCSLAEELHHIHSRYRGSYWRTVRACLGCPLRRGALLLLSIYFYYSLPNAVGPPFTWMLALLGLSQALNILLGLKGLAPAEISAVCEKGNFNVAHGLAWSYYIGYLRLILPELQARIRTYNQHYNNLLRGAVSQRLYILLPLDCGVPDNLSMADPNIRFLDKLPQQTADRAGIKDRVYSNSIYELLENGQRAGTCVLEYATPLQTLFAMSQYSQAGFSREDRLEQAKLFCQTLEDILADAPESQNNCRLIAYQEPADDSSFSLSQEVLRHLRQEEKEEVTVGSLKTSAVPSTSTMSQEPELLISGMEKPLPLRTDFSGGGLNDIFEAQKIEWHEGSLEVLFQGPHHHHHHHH
T1 sequence (Q86WV6 with tags, fused parts or gaps H232R): as the sequence (Q86WV6 with tags, fused parts or gaps R71H/G230A/H232R/R293Q) above, with H71R, A230G, Q293R counted along it

Work on `COc1cc2sc(C(=O)C[C@H](C)C(=O)O)cc2cc1NCCCOc1cc2cc(C(=O)C[C@H](C)C(=O)O)sc2cc1OC` [Example 74, (S)-4-(5-(3-((2-((S)-3-carboxybutanoyl)-6-methoxybenzo[b]thiophen-5-yl)amino)propoxy)-6-methoxybenzo[b]thiophen-2-yl)-2-methyl-4-oxobutanoic acid] yielded an activation at 30 µM [1] of 16%, an EC50 (full-length WT STING) of 6 nM and an EC50 (full-length HAQ STING) of 4 nM.
Compound `COc1cc2sc(C(=O)CCC(=O)O)cc2cc1CCCNc1nc2cc(C(=O)CCC(=O)O)sc2cc1OC` [Example 75, 4-(5-((3-(2-(3-carboxypropanoyl)-6-methoxybenzo[b]thiophen-5-yl)propyl)amino)-6-methoxythieno[3,2-b]pyridin-2-yl)-4-oxobutanoic acid] has an activation at 30 µM [1] of 63%, an EC50 (full-length WT STING) of 691 nM and an EC50 (full-length HAQ STING) of 139 nM.
For `COc1cc2sc(C(=O)C[C@H](C)C(=O)O)cc2cc1OCCOc1cc2cc(C(=O)C[C@H](C)C(=O)O)sc2cc1OC` [Example 76, (2S,2′S)-4,4′-((ethane-1,2-diylbis(oxy))bis(6-methoxybenzo[b]thiophene-5,2-diyl))bis(2-methyl-4-oxobutanoic acid)], the activation at 30 µM [1] was 44%, the EC50 (full-length WT STING) was 56 nM and the EC50 (full-length HAQ STING) was 22 nM.
For `C[C@@H](CC(=O)c1cc2cc(OCCCOc3cc4cc(C(=O)C[C@H](C)C(=O)O)sc4cc3OC(F)F)c(OC(F)F)cc2s1)C(=O)O` [Example 79, (2S,2′S)-4,4′-(1,3-propanediylbis{oxy[6-(difluoromethoxy)-1-benzothiene-5,2-diyl]})bis(2-methyl-4-oxobutanoic acid)], the activation at 30 µM [1] was 49%, the EC50 (full-length WT STING) was 12 nM and the EC50 (full-length HAQ STING) was 5 nM.
`COc1cc2sc(C(=O)[C@H]3C[C@@H]3C(=O)O)cc2cc1OCCCOc1cc2cc(C(=O)[C@@H]3C[C@H]3C(=O)O)sc2cc1OC` [Example 80, rac-(1S,2S)-2-(5-(3-((2-((1R, 2R)-2-carboxy-cyclopropane-1-carbonyl)-6-methoxybenzo[b]thiophen-5-yl)oxy)propoxy)-6-methoxybenzo[b]thiophene-2-carbonyl)cyclopropane-1-carboxylic acid] was tested, and the activation at 30 µM [1] was 12%, the EC50 (full-length WT STING) was 12700 nM and the EC50 (full-length HAQ STING) was 1300 nM.
For `COc1cc2sc(C(=O)CCC(=O)O)cc2nc1OCCOc1c(OC)cc2sc(C(=O)CCC(=O)O)cc2c1F` [Example 81, 4-(5-(2-((2-(3-carboxypropanoyl)-4-fluoro-6-methoxybenzo[b]thiophen-5-yl)oxy)ethoxy)-6-methoxythieno[3,2-b]pyridin-2-yl)-4-oxobutanoic acid], the activation at 30 µM [1] was 120%, the EC50 (full-length WT STING) was 23 nM and the EC50 (full-length HAQ STING) was 2 nM.
With `COc1cc2sc(C(=O)CCC(=O)O)cc2nc1OCCCOc1c(OC)cc2sc(C(=O)CCC(=O)O)cc2c1F` [Example 82, 4-(5-(3-((2-(3-carboxypropanoyl)-4-fluoro-6-methoxybenzo[b]thiophen-5-yl)oxy)propoxy)-6-methoxythieno[3,2-b]pyridin-2-yl)-4-oxobutanoic acid] the activation at 30 µM [1] was 158%, the EC50 (full-length WT STING) was 2 nM and the EC50 (full-length HAQ STING) was 1 nM.
`COc1cc2sc(C(=O)CCC(=O)O)cc2nc1OCCOc1c(OC)cc2sc(C(=O)C[C@H](C)C(=O)O)cc2c1F` [Example 83, (S)-4-(5-(2-((2-(3-carboxypropanoyl)-6-methoxythieno[3,2-b]pyridin-5-yl)oxy)ethoxy)-4-fluoro-6-methoxybenzo[b]thiophen-2-yl)-2-methyl-4-oxobutanoic acid] was tested, and the activation at 30 µM [1] was 107%, the EC50 (full-length WT STING) was 9 nM and the EC50 (full-length HAQ STING) was 2 nM.
For `COc1cc2sc(C(=O)C[C@H](C)C(=O)O)cc2cc1CCCOc1c(OC)cc2sc(C(=O)[C@@H]3C[C@H]3C(=O)O)cc2c1F` [Example 84, trans-2-(5-(3-(2-((S)-3-carboxybutanoyl)-6-methoxybenzo[b]thiophen-5-yl)propoxy)-4-fluoro-6-methoxybenzo[b]thiophene-2-carbonyl)-cyclopropanecarboxylic acid], the activation at 30 µM [1] was 148%, the EC50 (full-length WT STING) was 1060 nM and the EC50 (full-length HAQ STING) was 50 nM.
For `COc1cc2sc(C(=O)C[C@H](C)C(=O)O)cc2c(F)c1OCCCOc1c(OC)cc2sc(C(=O)[C@@H]3C[C@H]3C(=O)O)cc2c1F` [Example 86, trans-2-(5-(3-((2-((S)-3-carboxybutanoyl)-4-fluoro-6-methoxybenzo[b]thiophen-5-yl)oxy)propoxy)-4-fluoro-6-methoxybenzo[b]thiophene-2-carbonyl)cyclopropane carboxylic acid], the activation at 30 µM [1] was 131%, the EC50 (full-length WT STING) was 9 nM and the EC50 (full-length HAQ STING) was 1 nM.
For `COc1cc2sc(C(=O)[C@H]3C[C@@H]3C(=O)O)cc2c(F)c1OCCCOc1c(OC)cc2sc(C(=O)[C@@H]3C[C@H]3C(=O)O)cc2c1F` [Example 87, trans-2-(5-(3-((2-((1R,2R)-2-carboxycyclopropanecarbony)-4-fluoro-6-methoxybenzo[b]thiophen-5-yl)oxy)propoxy)-4-fluoro-6-methoxybenzo[b]thiophene-2-carbonyl)cyclopropane carboxylic acid], the activation at 30 µM [1] was 120%, the EC50 (full-length WT STING) was 1920 nM and the EC50 (full-length HAQ STING) was 167 nM.
With `COc1cc2sc(C(=O)C[C@H](C)C(=O)O)cc2cc1OCCCOc1c(OC)cc2sc(C(=O)[C@@H]3C[C@H]3C(=O)O)cc2c1F` [Example 89, trans-2-(5-(3-((2-((S)-3-carboxybutanoyl)-6-methoxybenzo[b]thiophen-5-yl)oxy)propoxy)-4-fluoro-6-methoxybenzo[b]thiophene-2-carbonyl)cyclopropane carboxylic acid] the activation at 30 µM [1] was 112%, the EC50 (full-length WT STING) was 94 nM and the EC50 (full-length HAQ STING) was 2 nM.
`COc1cc2cc(C(=O)C[C@H](C)C(=O)O)sc2cc1OCCCOc1c(OC)cc2sc(C(=O)[C@@H]3C[C@H]3C(=O)O)cc2c1F` [Example 90, trans-2-(5-(3-((2-((S)-3-carboxybutanoyl)-5-methoxybenzo[b]thiophen-6-yl)oxy)propoxy)-4-fluoro-6-methoxybenzo[b]thiophene-2-carbonyl)cyclopropane carboxylic acid] was tested, and the activation at 30 µM [1] was 125%, the EC50 (full-length WT STING) was 978 nM and the EC50 (full-length HAQ STING) was 58 nM.
For `COc1cc2sc(C(=O)C[C@@H](C)C(=O)O)cc2cc1CCCOc1c(OC)cc2sc(C(=O)C[C@H](C)C(=O)O)cc2c1F` [Example 91, (R)-4-(5-(3-((2-((S)-3-carboxybutanoyl)-4-fluoro-6-methoxybenzo[b]thiophen-5-yl)oxy)propyl)-6-methoxybenzo[b]thiophen-2-yl)-2-methyl-4-oxobutanoic acid], the activation at 30 µM [1] was 109%, the EC50 (full-length WT STING) was 30 nM and the EC50 (full-length HAQ STING) was 7 nM.
Work on `COc1cc2sc(C(=O)C[C@H](C)C(=O)O)cc2cc1OCCCCOc1cc2cc(C(=O)C[C@H](C)C(=O)O)sc2cc1OC` [Example 92, (2S,2′S)-4,4′-(5,5′-(butane-1,4-diylbis(oxy))bis(6-methoxybenzo[b]thiophene-5,2-diyl))bis(2-methyl-4-oxobutanoic acid)] yielded an activation at 30 µM [1] of 62%, an EC50 (full-length WT STING) of 7 nM and an EC50 (full-length HAQ STING) of 3 nM.
In the case of `COc1cc2sc(C(=O)C[C@H](C)C(=O)O)cc2cc1OCCCCOc1c(OC)cc2sc(C(=O)C[C@H](C)C(=O)O)cc2c1F` [Example 93, (S)-4-(5-(4-((2-((S)-3-carboxybutanoyl)-4-fluoro-6-methoxybenzo[b]thiophen-5-yl)oxy)butoxy)-6-methoxybenzo[b]thiophen-2-yl)-2-methyl-4-oxobutanoic acid], the activation at 30 µM [1] is reported as 87%, the EC50 (full-length WT STING) is reported as 3 nM and the EC50 (full-length HAQ STING) is reported as 1 nM.
`COc1cc2sc(C(=O)C[C@H](C)C(=O)O)cc2cc1OCCCCOc1cc2sc(C(=O)C[C@H](C)C(=O)O)cc2cc1OC` [Example 94, (S)-4-(5-(4-((2-((S)-3-carboxybutanoyl)-5-methoxybenzo[b]thiophen-6-yl)oxy)butoxy)-6-methoxybenzo[b]thiophen-2-yl)-2-methyl-4-oxobutanoic acid] gave an activation at 30 µM [1] of 100%, an EC50 (full-length WT STING) of 131 nM and an EC50 (full-length HAQ STING) of 6 nM.
`COc1cc2cc(C(=O)C[C@H](C)C(=O)O)sc2cc1OCCCCOc1cc2sc(C(=O)C[C@H](C)C(=O)O)cc2cc1OC` [Example 95, (2S,2′S)-4,4′-(6,6′-(butane-1.4-diylbis(oxy))bis(5-methoxybenzo[b]thiophene-6,2-diyl))bis(2-methyl-4-oxobutanoic acid)] gave an activation at 30 µM [1] of 72%, an EC50 (full-length WT STING) of 813 nM and an EC50 (full-length HAQ STING) of 237 nM.
`COc1cc2sc(C(=O)C[C@H](C)C(=O)O)cc2cc1CCCOc1c(OC)cc2sc(CC[C@H](C)C(=O)O)cc2c1F` [Example 100, (S)-4-(5-(3-((2-((S)-3-carboxybutyl)-4-fluoro-6-methoxybenzo[b]thiophen-5-yl)oxy)propyl)-6-methoxybenzo[b]thiophen-2-yl)-2-methyl-4-oxobutanoic acid] showed an activation at 3 µM ([1]; compound at 3 uM, read-out: % Effect relative to 2′3′-cGAMP (@ 3 uM)) of 33%, an EC50 (full-length WT STING) of 2240 nM and an EC50 (full-length HAQ STING) of 277 nM.
